Test results as given in ChEMBL document CHEMBL5291721, “A preclinical secondary pharmacology resource illuminates target-adverse drug reaction associations of marketed drugs” (Nat Commun, 2023).

Columns and labels:
[1] = target: Beta-2 adrenergic receptor (Homo sapiens, UniProt P07550)
B2 bradykinin receptor = target: T1, B2 bradykinin receptor (Homo sapiens, UniProt P30411)
T1 sequence (P30411 whole entry): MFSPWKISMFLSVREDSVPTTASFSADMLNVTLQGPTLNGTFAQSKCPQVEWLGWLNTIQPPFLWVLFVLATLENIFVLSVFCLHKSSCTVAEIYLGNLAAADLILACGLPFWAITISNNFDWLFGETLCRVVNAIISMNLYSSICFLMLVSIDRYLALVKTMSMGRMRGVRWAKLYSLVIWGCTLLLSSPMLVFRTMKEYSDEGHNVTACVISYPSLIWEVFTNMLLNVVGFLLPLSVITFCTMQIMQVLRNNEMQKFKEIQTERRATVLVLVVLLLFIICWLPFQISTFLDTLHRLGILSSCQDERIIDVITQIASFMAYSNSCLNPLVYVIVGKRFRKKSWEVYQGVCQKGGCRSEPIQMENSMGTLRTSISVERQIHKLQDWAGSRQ

D(1A) dopamine receptor [2] = target: T2, D(1A) dopamine receptor (Homo sapiens, UniProt P21728)
T2 sequence (P21728 whole entry): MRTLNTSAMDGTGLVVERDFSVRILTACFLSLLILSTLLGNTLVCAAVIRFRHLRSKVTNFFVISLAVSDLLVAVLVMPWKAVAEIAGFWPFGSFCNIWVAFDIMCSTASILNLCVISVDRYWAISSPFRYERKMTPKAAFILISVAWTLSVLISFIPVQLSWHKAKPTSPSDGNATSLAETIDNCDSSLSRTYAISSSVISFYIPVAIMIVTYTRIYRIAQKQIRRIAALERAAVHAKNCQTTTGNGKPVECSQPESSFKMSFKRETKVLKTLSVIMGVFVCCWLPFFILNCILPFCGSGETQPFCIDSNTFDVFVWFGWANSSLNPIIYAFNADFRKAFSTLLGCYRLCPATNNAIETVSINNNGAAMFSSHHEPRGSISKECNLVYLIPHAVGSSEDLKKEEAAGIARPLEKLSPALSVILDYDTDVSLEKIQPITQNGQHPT

[3] = target: Glutamate receptor ionotropic, NMDA 1 (Rattus norvegicus, UniProt P35439)
[4] = target: Kappa-type opioid receptor (Homo sapiens, UniProt P41145)
Kappa-type opioid receptor, sequence (P41145 whole entry): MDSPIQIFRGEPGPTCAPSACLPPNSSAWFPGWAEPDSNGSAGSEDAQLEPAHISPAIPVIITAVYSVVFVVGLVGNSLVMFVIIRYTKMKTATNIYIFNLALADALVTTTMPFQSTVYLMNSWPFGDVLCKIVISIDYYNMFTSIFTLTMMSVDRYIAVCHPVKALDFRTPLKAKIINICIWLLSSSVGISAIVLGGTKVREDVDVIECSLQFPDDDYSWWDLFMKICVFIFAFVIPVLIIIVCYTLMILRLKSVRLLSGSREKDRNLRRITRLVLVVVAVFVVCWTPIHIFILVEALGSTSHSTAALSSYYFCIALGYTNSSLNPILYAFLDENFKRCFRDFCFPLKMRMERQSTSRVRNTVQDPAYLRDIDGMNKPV

[5] = target: Prostaglandin G/H synthase 1 (Homo sapiens, UniProt P23219); type: functional
Prostaglandin G/H synthase 1, sequence (P23219 whole entry): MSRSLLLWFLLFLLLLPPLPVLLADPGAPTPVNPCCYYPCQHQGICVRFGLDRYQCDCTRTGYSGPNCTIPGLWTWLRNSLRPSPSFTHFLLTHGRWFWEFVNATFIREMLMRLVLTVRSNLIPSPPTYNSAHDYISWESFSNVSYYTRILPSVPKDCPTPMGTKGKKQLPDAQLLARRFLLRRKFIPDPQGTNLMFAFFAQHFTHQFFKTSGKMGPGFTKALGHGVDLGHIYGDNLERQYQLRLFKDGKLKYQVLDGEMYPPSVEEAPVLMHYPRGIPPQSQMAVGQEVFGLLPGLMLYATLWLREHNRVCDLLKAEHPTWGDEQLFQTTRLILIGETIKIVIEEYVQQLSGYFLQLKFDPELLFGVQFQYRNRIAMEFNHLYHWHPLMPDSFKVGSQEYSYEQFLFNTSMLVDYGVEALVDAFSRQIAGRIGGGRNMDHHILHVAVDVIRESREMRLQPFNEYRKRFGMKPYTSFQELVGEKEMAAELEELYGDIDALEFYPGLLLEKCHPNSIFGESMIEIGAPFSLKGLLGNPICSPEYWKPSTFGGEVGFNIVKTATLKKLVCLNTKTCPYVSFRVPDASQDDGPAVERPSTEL

[6] = target: T3, Equilibrative nucleoside transporter 1 (Homo sapiens, UniProt Q99808)
T3 sequence (Q99808 whole entry): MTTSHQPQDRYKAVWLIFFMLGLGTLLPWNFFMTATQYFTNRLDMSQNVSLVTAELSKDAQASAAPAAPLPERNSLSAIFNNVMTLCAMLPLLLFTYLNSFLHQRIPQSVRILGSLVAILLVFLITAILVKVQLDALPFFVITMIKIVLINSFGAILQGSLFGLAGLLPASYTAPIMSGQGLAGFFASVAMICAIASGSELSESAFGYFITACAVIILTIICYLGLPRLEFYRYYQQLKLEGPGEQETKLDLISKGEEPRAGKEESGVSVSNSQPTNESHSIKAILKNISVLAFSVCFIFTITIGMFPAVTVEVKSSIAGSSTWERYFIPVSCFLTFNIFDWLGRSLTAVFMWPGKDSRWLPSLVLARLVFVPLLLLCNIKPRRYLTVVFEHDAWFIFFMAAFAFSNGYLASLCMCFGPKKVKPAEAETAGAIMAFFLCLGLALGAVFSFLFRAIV

[7] = target: T4, Amine oxidase [flavin-containing] A (Homo sapiens, UniProt P21397); type: functional
T4 sequence (P21397 whole entry): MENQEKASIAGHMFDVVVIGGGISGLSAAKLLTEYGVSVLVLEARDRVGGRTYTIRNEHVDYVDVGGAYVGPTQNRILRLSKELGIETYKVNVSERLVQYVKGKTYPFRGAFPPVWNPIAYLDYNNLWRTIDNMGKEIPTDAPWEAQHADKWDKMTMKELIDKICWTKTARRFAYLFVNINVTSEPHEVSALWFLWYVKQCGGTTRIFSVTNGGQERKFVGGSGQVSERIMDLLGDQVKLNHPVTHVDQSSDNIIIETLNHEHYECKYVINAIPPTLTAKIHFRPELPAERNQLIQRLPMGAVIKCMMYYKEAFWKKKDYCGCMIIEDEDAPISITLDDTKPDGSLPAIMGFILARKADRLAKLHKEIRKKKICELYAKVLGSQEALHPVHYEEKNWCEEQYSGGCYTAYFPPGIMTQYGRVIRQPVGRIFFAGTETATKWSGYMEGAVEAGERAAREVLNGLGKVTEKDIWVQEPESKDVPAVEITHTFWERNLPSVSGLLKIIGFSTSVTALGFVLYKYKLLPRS

Histamine H3 receptor = Histamine H3 receptor (Homo sapiens, UniProt Q9Y5N1)
Histamine H3 receptor, sequence (Q9Y5N1 whole entry): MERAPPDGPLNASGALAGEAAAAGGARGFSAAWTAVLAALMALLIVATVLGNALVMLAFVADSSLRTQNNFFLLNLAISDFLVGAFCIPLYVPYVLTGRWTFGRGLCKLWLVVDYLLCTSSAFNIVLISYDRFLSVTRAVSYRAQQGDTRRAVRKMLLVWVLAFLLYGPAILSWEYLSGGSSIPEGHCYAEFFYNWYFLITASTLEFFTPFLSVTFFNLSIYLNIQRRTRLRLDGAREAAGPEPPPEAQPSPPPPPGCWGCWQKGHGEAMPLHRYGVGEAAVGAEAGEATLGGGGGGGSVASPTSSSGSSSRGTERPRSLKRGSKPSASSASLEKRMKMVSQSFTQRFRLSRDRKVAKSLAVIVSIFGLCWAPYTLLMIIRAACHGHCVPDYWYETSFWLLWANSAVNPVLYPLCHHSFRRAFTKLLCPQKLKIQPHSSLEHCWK

[8] = target: T5, Muscarinic acetylcholine receptor M2 (Homo sapiens, UniProt P08172); type: functional, cell-based
T5 sequence (P08172 whole entry): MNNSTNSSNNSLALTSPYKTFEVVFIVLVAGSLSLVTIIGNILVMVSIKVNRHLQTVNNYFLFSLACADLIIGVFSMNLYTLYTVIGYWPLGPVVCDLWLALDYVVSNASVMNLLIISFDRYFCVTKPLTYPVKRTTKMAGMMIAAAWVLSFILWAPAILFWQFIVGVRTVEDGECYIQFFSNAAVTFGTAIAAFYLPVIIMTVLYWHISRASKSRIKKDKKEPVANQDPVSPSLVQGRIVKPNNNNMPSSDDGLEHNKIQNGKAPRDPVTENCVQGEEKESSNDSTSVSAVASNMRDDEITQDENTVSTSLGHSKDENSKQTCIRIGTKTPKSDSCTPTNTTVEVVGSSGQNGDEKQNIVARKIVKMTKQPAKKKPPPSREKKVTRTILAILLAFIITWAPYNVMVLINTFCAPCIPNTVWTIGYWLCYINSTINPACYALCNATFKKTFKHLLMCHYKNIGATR

D(1A) dopamine receptor [9] = target: T2, D(1A) dopamine receptor; type: functional, cell-based
[10] = target: T6, Alpha-1A adrenergic receptor (Homo sapiens, UniProt P35348); type: functional, cell-based
T6 sequence (P35348 whole entry): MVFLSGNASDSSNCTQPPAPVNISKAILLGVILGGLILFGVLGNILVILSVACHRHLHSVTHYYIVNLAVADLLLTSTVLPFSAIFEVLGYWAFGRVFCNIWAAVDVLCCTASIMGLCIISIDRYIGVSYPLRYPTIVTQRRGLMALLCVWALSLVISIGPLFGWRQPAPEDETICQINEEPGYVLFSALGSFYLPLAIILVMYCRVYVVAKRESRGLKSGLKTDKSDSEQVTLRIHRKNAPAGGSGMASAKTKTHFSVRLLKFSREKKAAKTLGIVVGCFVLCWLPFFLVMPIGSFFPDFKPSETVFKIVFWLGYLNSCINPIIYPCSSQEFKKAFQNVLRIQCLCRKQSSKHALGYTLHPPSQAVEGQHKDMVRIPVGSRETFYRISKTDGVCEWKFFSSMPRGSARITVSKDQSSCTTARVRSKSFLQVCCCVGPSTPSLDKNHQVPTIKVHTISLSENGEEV
Further: assay procedure not described here.

Beta-2 adrenergic receptor, sequence (P07550 whole entry): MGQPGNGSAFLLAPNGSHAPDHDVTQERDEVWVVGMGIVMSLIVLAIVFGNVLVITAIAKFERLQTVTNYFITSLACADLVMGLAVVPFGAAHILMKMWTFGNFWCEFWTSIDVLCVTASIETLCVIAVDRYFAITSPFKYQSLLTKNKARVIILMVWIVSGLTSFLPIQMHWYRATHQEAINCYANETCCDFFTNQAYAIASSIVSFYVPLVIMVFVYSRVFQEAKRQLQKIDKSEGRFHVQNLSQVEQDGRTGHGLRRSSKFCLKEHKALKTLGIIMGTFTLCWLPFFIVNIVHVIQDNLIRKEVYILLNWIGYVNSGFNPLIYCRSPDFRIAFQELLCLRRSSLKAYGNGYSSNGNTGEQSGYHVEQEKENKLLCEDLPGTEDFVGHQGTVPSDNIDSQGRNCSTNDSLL

## O=C(/C=C/c1cccc(S(=O)(=O)Nc2ccccc2)c1)NO [BELINOSTAT]
[1]
  AC50: > 10 µM
B2 bradykinin receptor
  AC50: > 30 µM
D(1A) dopamine receptor [2]
  AC50: > 30 µM
[3]
  AC50: > 10 µM
[4]
  AC50: > 10 µM
[5]
  AC50: 5.61 µM
[6]
  AC50: > 30 µM
[7]
  AC50: > 10 µM
Histamine H3 receptor
  AC50: > 10 µM

## CC(O)(CS(=O)(=O)c1ccc(F)cc1)C(=O)Nc1ccc(C#N)c(C(F)(F)F)c1 (stereo not drawn) [BICALUTAMIDE]
[1]
  AC50: > 30 µM
B2 bradykinin receptor
  AC50: > 30 µM
[8]
  AC50: > 10 µM
D(1A) dopamine receptor [9]
  AC50: > 10 µM
D(1A) dopamine receptor [2]
  AC50: > 30 µM
[3]
  AC50: > 10 µM
[4]
  AC50: > 10 µM
[5]
  AC50: > 30 µM
[6]
  AC50: > 30 µM
[7]
  AC50: > 10 µM
[10]
  AC50: > 30 µM
Histamine H3 receptor
  AC50: > 30 µM

## NC[C@H]1CC[C@H](C(=O)Oc2ccc(CCC(=O)O)cc2)CC1 [CETRAXATE]
[8]
  AC50: > 30 µM
D(1A) dopamine receptor [9]
  AC50: > 30 µM
D(1A) dopamine receptor [2]
  AC50: > 30 µM
[3]
  AC50: > 30 µM
[4]
  AC50: > 30 µM
[5]
  AC50: > 30 µM
[7]
  AC50: > 30 µM
[10]
  AC50: > 30 µM

## CC(=O)O[C@]1(C(C)=O)CC[C@H]2[C@@H]3C=C(Cl)C4=CC(=O)[C@@H]5C[C@@H]5[C@]4(C)[C@H]3CC[C@@]21C [CYPROTERONE ACETATE]
[1]
  AC50: > 10 µM
B2 bradykinin receptor
  AC50: > 30 µM
D(1A) dopamine receptor [2]
  AC50: > 30 µM
[3]
  AC50: > 10 µM
[4]
  AC50: > 10 µM
[5]
  AC50: > 30 µM
[6]
  AC50: > 30 µM
[7]
  AC50: > 10 µM
Histamine H3 receptor
  AC50: > 10 µM

## C[C@@H]1C[C@H]2[C@@H]3C[C@H](F)C4=CC(=O)C=C[C@]4(C)[C@@]3(F)[C@@H](O)C[C@]2(C)[C@@]1(OC(=O)c1ccco1)C(=O)SCF [FLUTICASONE FUROATE]
[1]
  AC50: > 10 µM
B2 bradykinin receptor
  AC50: > 10 µM
[8]
  AC50: > 10 µM
D(1A) dopamine receptor [9]
  AC50: > 10 µM
D(1A) dopamine receptor [2]
  AC50: > 30 µM
[3]
  AC50: > 10 µM
[4]
  AC50: > 10 µM
[5]
  AC50: 27.7 µM
[6]
  AC50: > 10 µM
[7]
  AC50: > 10 µM
[10]
  AC50: > 30 µM

## COC(=O)[C@H]1[C@H]2C[C@@H]3c4[nH]c5cc(OC)ccc5c4CCN3C[C@H]2C[C@@H](OC(=O)c2cc(OC)c(OC)c(OC)c2)[C@@H]1OC [RESERPINE]
[1]
  AC50: > 10 µM
B2 bradykinin receptor
  AC50: > 10 µM
[8]
  AC50: > 10 µM
D(1A) dopamine receptor [9]
  AC50: > 10 µM
D(1A) dopamine receptor [2]
  AC50: > 30 µM
[3]
  AC50: > 10 µM
[4]
  AC50: 11.7 µM
[5]
  AC50: > 10 µM
[6]
  AC50: 28.5 µM
[7]
  AC50: > 30 µM

## O=S1(=O)CCN(CN2CCS(=O)(=O)NC2)CN1 [TAUROLIDINE]
[8]
  AC50: > 30 µM
D(1A) dopamine receptor [9]
  AC50: > 30 µM
D(1A) dopamine receptor [2]
  AC50: > 30 µM
[3]
  AC50: > 30 µM
[4]
  AC50: > 30 µM
[5]
  AC50: > 30 µM
[6]
  AC50: > 30 µM
[7]
  AC50: > 30 µM
[10]
  AC50: > 30 µM
